# Values joined by “and” are separate entries in the source; they are usually repeats but may differ in a detail not shown here. Equal values may be shown once. Read-outs that look alike come from different tables or passages of the source.
# Tested on: DIO C57Bl6 mice
# Conditions: for Weight Change from day 1: Day 32; for Average BW: IP-GTT day 24; for Blood Glucose 120 / Blood Glucose 15 min / Blood Glucose 30 min / Blood Glucose 60 min / Blood Glucose 90 min / Blood Glucose Fasting: IP-GTT day 24, ± SEM; for CHOLESTEROL / HDL CHOLESTEROL / HDL/LDL ratio / LDL / TRIGLYCERIDE: blood day 32, ± SEM; for Epid. Fat / Fat % BW / Ing. Fat / Liver / RP Fat / Total Fat / avg B.W.: day 32; for Blood glucose: day 32, fasted three hours; for weekly food consumption, % of vehicle: day 9-29
# Protocol: C57Bl6 male mice (N=6) fifteen weeks old with an average of weight of 42 g were ad libitum fed TD.06414 a high fat diet composed of 60% Kcal from fat (Harlan diet). […] Animals were weighed every other day. Food consumption was measured weekly. […] Each animal was weighed and a baseline fasted glucose measurement collected. Each animal was given a 1 gram per kilogram dose of dextrose as a 25% solution by intraperitoneal injection.
substance,measurement,setting,value
poly[HPMA-co-MA-GFLG-N-(trans-4-aminocyclohexyl)carbamoylfumagillol] [Compound 16],"Group BW ± SEM, Day 32",0.2 mg/kg q4d sc,46.5 ± 0.65 g
same,Weekly food consumption Day 1-8,0.2 mg/kg q4d sc,25.8 g
same,Weekly food consumption Day 9-15,0.2 mg/kg q4d sc,22.6 g
same,Weekly food consumption Day 15-22,0.2 mg/kg q4d sc,20.3 g
same,Weekly food consumption Day 22-29,0.2 mg/kg q4d sc,19.7 g
same,Weight Change from day 1,0.2 mg/kg q4d sc,+10.5%
same,Average BW,0.2 mg/kg q4d sc,43.4 g
same,Blood Glucose 120,0.2 mg/kg q4d sc,241 ± 16.8 mg/dL
same,Blood Glucose 15 min,0.2 mg/kg q4d sc,505 ± 33.9 mg/dL
same,Blood Glucose 30 min,0.2 mg/kg q4d sc,446 ± 20.5 mg/dL
same,Blood Glucose 60 min,0.2 mg/kg q4d sc,456 ± 25.9 mg/dL
same,Blood Glucose 90 min,0.2 mg/kg q4d sc,341 ± 15.5 mg/dL
same,Blood Glucose Fasting,0.2 mg/kg q4d sc,254 ± 5.8 mg/dL
same,CHOLESTEROL,0.2 mg/kg q4d sc,253 ± 8.4 mg/dL
same,HDL CHOLESTEROL,0.2 mg/kg q4d sc,117 ± 2.7 mg/dL
same,HDL/LDL ratio,0.2 mg/kg q4d sc,4.9 ± 0.2
same,LDL,0.2 mg/kg q4d sc,24 ± 1.1 mg/dL
same,TRIGLYCERIDE,0.2 mg/kg q4d sc,158 ± 10.9 mg/dL
same,Epid. Fat,0.2 mg/kg q4d sc,2.01 g
same,Fat % BW,0.2 mg/kg q4d sc,13.0%
same,Ing. Fat,0.2 mg/kg q4d sc,2.54 g
same,Liver,0.2 mg/kg q4d sc,2.06 g
same,RP Fat,0.2 mg/kg q4d sc,1.48 g
same,Total Fat,0.2 mg/kg q4d sc,6.02 g
same,avg B.W.,0.2 mg/kg q4d sc,46.50 g
same,Blood glucose,0.2 mg/kg q4d sc,290 mg/dL
same,"Group BW ± SEM, Day 32",0.6 mg/kg q4d sc,43.3 ± 0.42 g
same,Weekly food consumption Day 1-8,0.6 mg/kg q4d sc,19.5 g
same,Weekly food consumption Day 9-15,0.6 mg/kg q4d sc,21.5 g
same,Weekly food consumption Day 15-22,0.6 mg/kg q4d sc,20.2 g
same,Weekly food consumption Day 22-29,0.6 mg/kg q4d sc,18.4 g
same,Weight Change from day 1,0.6 mg/kg q4d sc,+2.9%
same,Average BW,0.6 mg/kg q4d sc,40.9 g
same,Blood Glucose 120,0.6 mg/kg q4d sc,192 ± 12.9 mg/dL
same,Blood Glucose 15 min,0.6 mg/kg q4d sc,442 ± 50.0 mg/dL
same,Blood Glucose 30 min,0.6 mg/kg q4d sc,441 ± 35.54 mg/dL
same,Blood Glucose 60 min,0.6 mg/kg q4d sc,388 ± 56.7 mg/dL
same,Blood Glucose 90 min,0.6 mg/kg q4d sc,302 ± 43.3 mg/dL
same,Blood Glucose Fasting,0.6 mg/kg q4d sc,206 ± 14.9 mg/dL
same,CHOLESTEROL,0.6 mg/kg q4d sc,210 ± 3.7 mg/dL
same,HDL CHOLESTEROL,0.6 mg/kg q4d sc,106 ± 1.2 mg/dL
same,HDL/LDL ratio,0.6 mg/kg q4d sc,5.4 ± 0.1
same,LDL,0.6 mg/kg q4d sc,20 ± 0.3 mg/dL
same,TRIGLYCERIDE,0.6 mg/kg q4d sc,116 ± 3.1 mg/dL
same,Epid. Fat,0.6 mg/kg q4d sc,2.24 g
same,Fat % BW,0.6 mg/kg q4d sc,13.9%
same,Ing. Fat,0.6 mg/kg q4d sc,2.51 g
same,Liver,0.6 mg/kg q4d sc,1.75 g
same,RP Fat,0.6 mg/kg q4d sc,1.26 g
same,Total Fat,0.6 mg/kg q4d sc,6.01 g
same,avg B.W.,0.6 mg/kg q4d sc,43.32 g
same,Blood glucose,0.6 mg/kg q4d sc,265 mg/dL
same,"weekly food consumption, % of vehicle",2 mg/kg q4d,90%
same,Weekly food consumption Day 1-8,2 mg/kg q4d sc,14.3 g
same,Weekly food consumption Day 9-15,2 mg/kg q4d sc,22.2 g
same,Weekly food consumption Day 15-22,2 mg/kg q4d sc,19.9 g
same,Weekly food consumption Day 22-29,2 mg/kg q4d sc,18.5 g
same,"Group BW ± SEM, Day 32",2.0 mg/kg q4d sc,38.8 ± 0.70 g
same,Weight Change from day 1,2.0 mg/kg q4d sc,−7.4%
same,Average BW,2.0 mg/kg q4d sc,36.8 g
same,Blood Glucose 120,2.0 mg/kg q4d sc,166 ± 6.4 mg/dL
same,Blood Glucose 15 min,2.0 mg/kg q4d sc,388 ± 20.7 mg/dL
same,Blood Glucose 30 min,2.0 mg/kg q4d sc,361 ± 24.3 mg/dL
same,Blood Glucose 60 min,2.0 mg/kg q4d sc,327 ± 26.7 mg/dL
same,Blood Glucose 90 min,2.0 mg/kg q4d sc,244 ± 24.0 mg/dL
same,Blood Glucose Fasting,2.0 mg/kg q4d sc,198 ± 11.6 mg/dL
same,CHOLESTEROL,2 mg/kg q4d sc,149 ± 4.7 mg/dL
same,HDL CHOLESTEROL,2 mg/kg q4d sc,92 ± 2.6 mg/dL
same,HDL/LDL ratio,2 mg/kg q4d sc,9.0 ± 0.4
same,LDL,2 mg/kg q4d sc,10 ± 0.5 mg/dL
same,TRIGLYCERIDE,2 mg/kg q4d sc,95 ± 8.7 mg/dL
same,Epid. Fat,2.0 mg/kg q4d sc,1.72 g
same,Fat % BW,2.0 mg/kg q4d sc,11% and 11.4%
same,Ing. Fat,2.0 mg/kg q4d sc,1.81 g
same,Liver,2.0 mg/kg q4d sc,1.44 g
same,RP Fat,2.0 mg/kg q4d sc,0.89 g
same,Total Fat,2.0 mg/kg q4d sc,4.42 g
same,avg B.W.,2.0 mg/kg q4d sc,38.82 g
same,Blood glucose,2.0 mg/kg q4d sc,259 mg/dL
same,"weekly food consumption, % of vehicle",6 mg/kg q4d,75%
same,Weekly food consumption Day 1-8,6 mg/kg q4d sc,9.0 g
same,Weekly food consumption Day 9-15,6 mg/kg q4d sc,17.5 g
same,Weekly food consumption Day 15-22,6 mg/kg q4d sc,17.8 g
same,Weekly food consumption Day 22-29,6 mg/kg q4d sc,16.1 g
same,"Group BW ± SEM, Day 32",6.0 mg/kg q4d sc,33.6 ± 0.72 g
same,Weight Change from day 1,6.0 mg/kg q4d sc,−20.0%
same,Average BW,6.0 mg/kg q4d sc,33.0 g
same,Blood Glucose 120,6.0 mg/kg q4d sc,177 ± 9.3 mg/dL
same,Blood Glucose 15 min,6.0 mg/kg q4d sc,473 ± 39.1 mg/dL
same,Blood Glucose 30 min,6.0 mg/kg q4d sc,355 ± 23.8 mg/dL
same,Blood Glucose 60 min,6.0 mg/kg q4d sc,324 ± 19.1 mg/dL
same,Blood Glucose 90 min,6.0 mg/kg q4d sc,240 ± 6.7 mg/dL
same,Blood Glucose Fasting,6.0 mg/kg q4d sc,185 ± 6.5 mg/dL
same,CHOLESTEROL,6 mg/kg q4d sc,109 ± 2.6 mg/dL
same,HDL CHOLESTEROL,6 mg/kg q4d sc,72 ± 1.3 mg/dL
same,HDL/LDL ratio,6 mg/kg q4d sc,9.0 ± 0.5
same,LDL,6 mg/kg q4d sc,8 ± 0.5 mg/dL
same,TRIGLYCERIDE,6 mg/kg q4d sc,81 ± 13.6 mg/dL
same,Epid. Fat,6.0 mg/kg q4d sc,1.11 g
same,Fat % BW,6.0 mg/kg q4d sc,10% and 9.7%
same,Ing. Fat,6.0 mg/kg q4d sc,1.54 g
same,Liver,6.0 mg/kg q4d sc,1.30 g
same,RP Fat,6.0 mg/kg q4d sc,0.60 g
same,Total Fat,6.0 mg/kg q4d sc,3.25 g
same,avg B.W.,6.0 mg/kg q4d sc,33.60 g
same,Blood glucose,6.0 mg/kg q4d sc,227 mg/dL

# Reference: patent US11304944B2, “MetAP2 inhibitors and methods of treating obesity” (SynDevRx, Inc., priority 2013, dated 2022)
